Experimental data from patent US20150164910A1, “ANTIVIRAL COMPOUNDS AND METHODS OF USE” (The Regents of the University of Califonia, priority 2012, published 2015).

Tests used:
[1] = tested on: CVB3-H3; assay: Plaque reduction assay, CVB3-H3 in HeLa-RW cells; type: cell-based, coxsackievirus B3; conditions: compound added 30 min before infection, CVB3-H3 MOI 1, HeLa-RW, 6 hours; log10(titer with DMSO only/titer with inhibitor)
[2] = tested on: eGFP-expressing recombinant CVB3; type: cell-based, coxsackievirus B3; conditions: for % of eGFP + cells, 0 Hr: compound added 0 hr post infection at its peak activity concentration, DMSO 26.0; for % of eGFP + cells, 0 Hr / % of eGFP + cells, 1 Hr / % of eGFP + cells, 2 Hr: read 6 hr post infection; for % of eGFP + cells, 1 Hr: compound added 1 hr post infection at its peak activity concentration, DMSO 23.7; for % of eGFP + cells, 2 Hr: compound added 2 hr post infection at its peak activity concentration, DMSO 24.8; for Inhibition of infected cells: eGFP-CVB3 m.o.i=1, compound added at time of infection, 6 hr post infection, 1-(% eGFP+ cells with compound/% with DMSO only)
[3] = tested on: coxsackievirus B3 (CVB3); assay: Cell viability assay, prevention of cell death caused by CVB3 infection; type: cell-based; conditions: for Selectivity index: 50% Cytotoxic concentration/50% activity concentration; for IC50 / EC (peak activity): Enterovirus B; for IC50: read-out: 50% activity concentration (IC50); for EC (peak activity): HeLa-RW cells and CVB3 at low multiplicity of infection, read-out: Peak Activity Conc.
Protocol: (§1) Procedure: Enteroviruses rapidly cause cell death, and a cell viability assay was used to examine the cytotoxicity of each compound and to identify the concentration needed to prevent cell death caused by coxsackievirus B3 (CVB3) infection.
(§2) Compounds were diluted two-fold and added to wells of 384 well plate. HeLa-RW cells were then added (cytotoxicity testing), or cells and CVB3 were added to provide a low multiplicity of infection to determine concentration of peak activity or 50% maximal concentration. Selectivity index is defined as the 50% Cytotoxic concentration/50% activity concentration

[4] = tested on: poliovirus 1 (PV-1); type: cell-based; design: dose or concentration left out as unconfirmed; conditions: HeLa cells, MOI of 1, six hours (FIG. 6)
[5] = tested on: poliovirus-3 (PV-3); type: cell-based; design: dose or concentration left out as unconfirmed; conditions: HeLa cells, MOI of 1, six hours (FIG. 6)
[6] = tested on: CVB3; assay: Time of addition experiment, CVB3 in HeLa cells; type: cell-based, coxsackievirus B3
[7] = tested on: HeLa-RW cells; type: cell-based; conditions: in words
Protocol: as §1, §2

[8] = tested on: coxsackievirus B3 (CVB3); assay: Cell viability assay, prevention of cell death caused by CVB3 infection; type: cell-based; conditions: Enterovirus B, HeLa, read-out: 50% effective concentration (EC50), CVB3 replication
[9] = tested on: viral capsid proteins of CVB3; assay: Immunoblot detection of CVB3 viral capsid protein; type: cell-based, coxsackievirus B3; conditions: six hours after infection with CVB3; compound added 30 minutes before inoculation; 10 μM fluoxetine in FIG. 2

| Structure (SMILES) | Log10 reduction of virus titer [1] | % of eGFP + cells, 0 Hr [2] | % of eGFP + cells, 1 Hr [2] | % of eGFP + cells, 2 Hr [2] | Inhibition of infected cells [2] | Selectivity index [3] | IC50 [3] | EC (peak activity) [3] | titer of virus produced, PV-1 [4] | titer of virus produced, PV-3 [5] | activity when added 2 hours after infection begins ([6]; virus produced six hours after infection (FIG. 7)) | cytotoxicity to HeLa cells [7] | CVB3 replication, compound added 1 hour or more after inoculation ([6]; added 1 hour or more after inoculation (FIG. 7)) | CVB3 replication, compound added prior to inoculation ([6]; added prior to inoculation of cultures (FIG. 7)) | EC50 [8] | viral capsid protein detected by immunoblot [9] |
| --- | --- | --- | --- | --- | --- | --- | --- | --- | --- | --- | --- | --- | --- | --- | --- | --- |
| Cl.OC(c1cc(C(F)(F)F)nc2c(C(F)(F)F)cccc12)C1CCCCN1 (stereo not shown) [Compound 22, [2,8-Bis (trifluoromethyl)-4-quinolinyl](2-piperidinyl)methanol hydrochloride (1:1), reference compound] | 4.0 | 21.1% | 18.5% | 27.9% | 100% | 6 | 1.6 µM | 3.13 µM | – | – | – | – | – | – | – | – |
| CC(C)n1ncc2c(C(=O)Nc3ccccc3F)cc(-c3cccs3)nc21 [Compound 3, N-(2-Fluorophenyl)-1-isopropyl-6-(2-thienyl)-1H-pyrazolo [3,4-b]pyridine-4-carboxamide] | 4.5 | 0.0% | 0.0% | 0.0% | 100% | 175 | 1.14 µM | 3.13 µM | marked reduction | marked reduction | equivalently active | – | – | – | – | – |
| COc1ccc(C(=O)N2CCC(C(=O)c3ccc4c(c3)OCCO4)CC2)cc1F [Compound 45, 2,3-Dihydro-1,4-benzodioxin-6-yl [1-(3-fluoro-4-methoxybenzoyl)-4-piperidinyl] methanone] | 2.0 | 8.9% | 17.0% | 20.0% | 82.1% | 125 | 0.2 µM | 1.56 µM | – | – | – | minimally cytotoxic | less potent | markedly reduced | 0.2 µM | – |
| Cc1ccccc1NC(=O)c1cc(-c2cccs2)nc2c1cnn2C(C)C [Compound 1, 1-Isopropyl-N-(2-methylphenyl)-6-(2-thienyl)-1H-pyrazolo [3,4-b]pyridine-4-carboxamide] | 4.4 | 0.0% | 0.0% | 0.0% | 100% | 42 | 0.6 µM | 1.56 µM | – | – | – | – | – | – | – | – |
| O=C(Nc1nc(CN2CCCC2)cs1)c1cc(-c2cccs2)nc2ccccc12 [Compound 33, N-[4-(1-Pyrrolidinylmethyl)-1,3-thiazol-2-yl)-2-(2-thienyl)-4-quinoline-carboxamide] | 4.5 | 0.0% | 0.0% | 0.0% | 100% | 44 | 0.57 µM | 3.13 µM | – | – | – | – | – | – | – | – |
| NCCC(Oc1ccc(C(F)(F)F)cc1)c1ccccc1 (stereo not shown) [Compound 74, 3-Phenyl-3-[4-(trifluoromethyl)phenoxy]-1-propanamine] | 4.7 | 0.0% | 0.0% | 0.0% | 100% | 10 | 2.53 µM | 6.25 µM | – | – | – | – | – | – | – | no viral protein is detected |
| N#Cc1ccc(OCc2nc3ccccc3n2-c2ccccc2)cc1 [Compound 42, 4-[(1-Phenyl-1H-benzimidazol-2-yl)methoxy) benzonitrile] | 4.5 | 0.0% | 0.1% | 0.0% | 100% | 8 | 3 µM | 6.25 µM | – | – | – | – | – | – | – | – |
| CN1c2ccccc2C(=O)NC1c1cc2ccccc2nc1N1CCOCC1 (stereo not shown) [Compound 23, 1-Methyl-2-[2-(4-morpholinyl)-3-quinolinyl]-2,3-dihydro-4(1H)-quinazolinone] | 4.4 | 0.1% | 3.8% | 0.0% | 100% | 54 | 0.92 µM | 3.13 µM | – | – | – | – | – | – | – | – |
| COc1ccc(N(Cc2ccc(F)cc2)C(=O)c2ccco2)cc1 [Compound 57, N-(4-Fluorobenzyl)-N-(4-methoxyphenyl)-2-furamide] | 4.3 | 0.0% | 0.0% | 0.0% | 99.7% | 16 | 3.13 µM | 6.25 µM | – | – | – | – | – | – | – | – |
| C/C(=C\c1ccccc1)C1NC(N)=Nc2nc3ccccc3n21 (stereo not shown) [Compound 68, 4-[(1E)-1-Phenyl-1-propen-2-yl)-1,4-dihydro[1,3,5] triazino[1,2-a]benzimidazol-2-amine] | 3.7 | 0.0% | 0.0% | 0.0% | 100% | 21 | 1.21 µM | 3.13 µM | – | – | – | – | – | – | – | – |
